Assay [1] has as its system TNF-α in human macrophages. Nature of the assay: TNF-α in human macrophages after elevation by LPS (ELISA). The assay is classed as cell-based. The procedure: Blood (20 ml was collected from healthy human subjects on the day of the experiment in anti-coagulant tubes and diluted in PBS 1:1. Ficol (12 mL) was added into the bottom of the tube, centrifuged slowly for 30 min at 1400 g and peripheral blood mononuclear cells (PBMCs) were separated. Monocytes were isolated by addition of 15 ml of MACS buffer. After centrifugation at 1400 g for 10 min at 4° C., the supernatant fluid was removed, monocytes were isolated by means of a MACS-Monocyte isolation kit (cat: 130-091-153) and incubated at 4-8° C. for 10 min Monocytes (500,000/well) were seeded in 12 multi well plate and cultured for 7 days in RPMI+L-Glutamin+FBS (10%) and PenStrep and h-MCSF (20 ng/mL) to convert them into macrophages. […] TNF-α, IL-1β and IL-6 protein were detected by means of the sandwich ELISA method using an ELISA kit for human cytokines (Biolegend, San Diego, CA, USA) according to the manufacturer's instructions.
(In an ELISA, binding on a coated surface is turned into a signal by an enzyme label.)

Assay [2] relates to IL-6 in human macrophages. Nature of the assay: IL-6 in human macrophages after elevation by LPS (ELISA). The class given is cell-based. The conditions noted are these: 24 h after LPS; 1 × 10^−9 M. The procedure: Blood (20 ml was collected from healthy human subjects on the day of the experiment in anti-coagulant tubes and diluted in PBS 1:1. Ficol (12 mL) was added into the bottom of the tube, centrifuged slowly for 30 min at 1400 g and peripheral blood mononuclear cells (PBMCs) were separated. Monocytes were isolated by addition of 15 ml of MACS buffer. After centrifugation at 1400 g for 10 min at 4° C., the supernatant fluid was removed, monocytes were isolated by means of a MACS-Monocyte isolation kit (cat: 130-091-153) and incubated at 4-8° C. for 10 min Monocytes (500,000/well) were seeded in 12 multi well plate and cultured for 7 days in RPMI+L-Glutamin+FBS (10%) and PenStrep and h-MCSF (20 ng/mL) to convert them into macrophages. Compounds (AN1284, AN1297, AN1298, 1×10^−10 or 1×10^−9 M) were added 2 h before LPS (100 μg/mL Sigma Ltd. phenol extracted from Escherichia coli 055: B5) and incubated at 37° C., 5% CO2. TNF-α, IL-1β and IL-6 protein were detected by means of the sandwich ELISA method using an ELISA kit for human cytokines (Biolegend, San Diego, CA, USA) according to the manufacturer's instructions.

In the next assay the test system is LPS-injected mice. Nature of the assay: Pro-inflammatory cytokine proteins in tissues of mice injected with LPS. The assay is classed as in vivo, mouse. The conditions noted are these: sc, 2-3 doses, 15 min before LPS 10 mg/kg ip; 4 h after LPS. The procedure:
Male Balb/c OlaHsd mice (aged 7-8 weeks) were injected subcutaneously (sc) with saline, or with AN1279, AN1283, AN1284, AN1287 and AN1298 at doses that contain approximately the equivalent amount of the base. LPS (10 mg/kg) was given by intraperitoneal injection 15 min later. The mice were sacrificed 4 h later, which was previously shown to be the optimal time for elevation of cytokines in the spleen and brain. The spleen, brain and liver were rapidly removed and frozen in liquid nitrogen and stored at −80° C. until use. A piece of the cortex was taken for gene analysis of cytokines. Blood was collected into heparinized tubes and plasma separated by centrifugation. For measurement of cytokine protein, tissues were weighed and diluted in PBS containing 0.8% NaCl, 0.144% NaHPO4, 0.024% KH2PO4 and protease inhibitor cocktail (Sigma) and homogenised in an Ultra-TURRAX® homogeniser at a speed of 24,000 rpm and centrifuged at 14000 g for 15 min at 4° C. Cytokines were detected by means of Elisa kits (Biolegend) and protein concentration was determined by a bicinchoninic acid protein assay kit (Thermo Scientific, IL, USA).

For assay [3], the system named is cerulein-induced mouse model. Nature of the assay: Acute pancreatitis, cerulein-induced mouse model. The assay is classed as in vivo. Particulars: for Serum amylase: 1 and 2 mg/kg sc 30 min after first cerulein injection, 4 hours; for TNF-α protein in the pancreas: 1 and 2 mg/kg sc, 4 hours after first cerulein injection. The procedure: The most commonly used animal model for acute pancreatitis is the cerulein-induced mouse model (Su et al., 2006). Cerulein is a cholecystokinin analogue that produces hyperstimulation of the pancreatic acinar cells at supramaximal dosage. The acute necrotizing pancreatitis produced is histopathologically similar to acute human pancreatitis (Van Acker et at, 2007). Groups of 10 Balb/C male mice weighing 24 gm were injected intraperitoneally once every hour for 4 hours with cerulean (50 μg/kg) suspended in saline. AN1297 (1 or 2 mg/kg) or resolvin D (1 mg/kg) or saline that were injected sc. 30 min after the first cerulean injection. Mice were killed by exsanguination at 4 hours after the first cerulein injection. Blood samples or measurement of amylase were obtained by direct intracardiac puncture. Pancreases were removed immediately, flash frozen in liquid nitrogen and stored −80° C. until assayed, for TNF-α protein by means of the sandwich ELISA method using an ELISA kit (Biolegend, San Diego, CA, USA) according to the manufacturer's instructions. Serum amylase activity was determined using a colorimetric assay kit (ab102523, Abcam). The values of serum amylase activity are expressed as units per litre (U/l).

In another assay the test system is Caspase 3. The experiment in a line: Caspase 3 activity in RAW macrophage 264.7 cells exposed to H2O2. The class given is cell-based, mouse. The conditions noted are these: 1×10^−13M. The procedure: Oxidative stress can cause apoptosis, a form of cell suicide mediated by a cascade of proteolytic enzymes called caspases (cysteinyl aspartate-specific proteases). Caspase 3 is one of a number of effector caspases. Its activity was measured by means of a luminescent assay (Caspase-Glo 3/7 Assay Promega Ltd). […] The medium was aspirated 90 min later, 100 μL of DMEM was added to each well and the plates kept in an incubator overnight. Caspase-GloR Reagent (100 μL) was added to each well and the contents gently mixed using a plate shaker at 300-500 rpm for 30 sec. The plates were left at room temperature for 30 min and then luminescence of each sample was measured in a plate-reading luminometer (Cytation 3).

The mark [4] stands for this setting: listed as AN1927, Hydrochloride.

Turning to `COC(=O)CCN1CCc2cc(OC)ccc21.Cl` [AN1297, Methyl 3-(5-Methoxyindolin-1-yl)propanoate Hydrochloride], the “Reduction (%) ± STD compared to LPS alone, TNF-α” value came out at 55.7 ± 11.5% in assay [1] (6 h after LPS, 1 × 10^−9 M); 25.1 ± 10.9% in assay [1] (12 h after LPS, 1 × 10^−10 M); 22.0 ± 7.2% in assay [1] (12 h after LPS, 1 × 10^−11 M); 71.1 ± 8.9% in assay [1] (24 h after LPS, 1 × 10^−9 M). Further, the “Reduction (%) ± STD compared to LPS alone, IL-6” value in assay [2] is 62.4 ± 16.5%. Also, the “IL-6 protein in the brain” value with LPS-injected mice is “reduction”. Moreover, the “IL-6 protein in the liver” value with LPS-injected mice is listed as “reduction”. The results for the Serum amylase entry in assay [3] (Hydrochloride) and in assay [3] (setting [4]) were “decreased significantly” and “Dose related reduction”, respectively. In addition, the “TNF-α protein in the pancreas” value is “dose-dependently reduced” in assay [3] (Hydrochloride) and “Dose related reduction” in assay [3] (setting [4]).
With `COC(=O)CCN1CCc2ccc(OCc3ccccc3)cc21.Cc1ccc(S(=O)(=O)O)cc1` [AN1279, Methyl 3-(6-(Benzyloxy)indolin-1-yl)propanoate p-Toluenesulfonate], the “Reduction in caspase 3 activity compared with the other compounds” value in the assay with Caspase 3 is on record as “less reduction in caspase 3 activity than the other compounds”.
As to `NCCCN1CCc2ccccc21` [AN1264, di-p-Toluenesulfonate], the “Reduction in caspase 3 activity compared with the other compounds” value with Caspase 3 is listed as “less reduction in caspase 3 activity than the other compounds”.

The values above are taken from patent US12599584B2, “Indoline derivatives, compositions comprising them and uses thereof” (Yissum Research Development Company of The Hebrew …, priority 2016, dated 2026).
